Data from US12011447B2, “Pharmaceutical composition for treating thyroid cancer comprising tyrosine kinase activity inhibitor as active ingredient” (Kyungpook National University Industry-Academic Cooperation …, priority 2017, dated 2024).

What was measured:
[1] = R-luc BLI signal indicating cell viability in dual-reporter cells; format: cell-based, human; settings: human; 8505C-PNIS-PCMV cells, 24 hours, screening; read-out: BLI signal activity of R-luc (cell viability) compared to vehicle group
Source text: (§1) A pNIS-FL2-TurboFP635-pCMV-Rluc recombinant vector expressing reporter genes driven by dual promoters was constructed by Cosmo Genetech, Ltd. (Republic of Korea) using a pNIS-FL2-TurboFP635 vector and a pcDNA3.1/Hygro(+) vector. Specifically, in order to screen a substance that increases the activity of NIS promoter, Firefly-luciferase2(F-luc2) and TurboFP635 were included downstream (clockwise) of the NIS promoter. In order count cells, CMV promoter and Renilla-luciferase (R-luc) were included upstream (counterclockwise) of the NIS promoter. The pNIS-FL2-TurboFP635 vector was provided from Dr. Abhijit De (ACTREC, India), and the pcDNA3.1/Hygro(+) vector was purchased from invitrogen (USA).
(§2) The 8505C cell line was transfected with the pNIS-FL2-TurboFP635-pCMV-Rluc recombinant vector using the Fu-GENE HD solution according to the protocols of the manufacturer (Promega). […]
(§3) To examine transcriptional regulation of the NIS (sodium iodide symporter) promoter, the 8505C-PNIS-PCMV cells were treated with a tyrosine kinase inhibitor (hereinafter referred to as TKI) library for 24 hours. Next, D-luciferin (150 μg/ml) was added to the cells, and the activity of NIS promoter was measured by IVIS Lumina III (Perkin-Elmer, Wellesley, Mass., USA). To normalize the NIS promoter activity to cell number, 10 μg/ml of h-coelenterazine was added to the cells, and the activity of R-luc was measured. […]

[2] = system: 8505C-PNIS-PCMV cells; assay: as above; format: cell-based, human; settings: FIG. 7B
Source text: as §1, §2, §3

[3] = system: p-AKT; assay: Western blot of phosphorylated AKT; format: cell-based, human; settings: 8505C-PNIS-PCMV cells
Experimental: 8505C-PNIS-PCMV cells were treated with TKI-0266 and incubated for 24 hours, and then the cell pellet was washed twice with cold phosphate-buffered saline (hereinafter referred to as PBS). An RIPA buffer (Thermo Fisher Scientific, USA) containing a protease/phosphatase cocktail inhibitor kit (Thermo Fisher Scientific) was added to the cell pellet to lyse the cells. The lysed cells were gently vortexed three times at a time interval, and centrifuged at 13000xg at 4° C. to isolate a soluble protein. The isolated protein was quantified using a BCA protein assay kit (Thermo Fisher Scientific).
Equal amounts of proteins were separated by 10% SDS-PAGE (sodium dodecyl sulfate-polyacrylamide gel electrophoresis), and then the proteins were transferred to PVDF membranes (Millipore, USA). The PVDF membrane was blocked with 3% BSA (bovine serum albumin) in TBS containing Tween-20 (TBS-T) for 1 hour, and incubated with primary antibodies in 0.5% BSA overnight at 4° C. The next day, the PVDF membrane was incubated with HRP-conjugated secondary antibodies at room temperature for 1 hour, and washed three times with TBS-T. The protein bands were visualized using ECL detection reagent (GE Healthcare Life Sciences, Italy) and the Fusion FX chemiluminescence analyzer system (Vilber lourmat, France). […]

[4] = system: NIS; assay: Immunofluorescence microscopy of NIS; format: cell-based, human; settings: anaplastic thyroid cancer cells, 24 hours
Experimental: 8505C cells were seeded in a plate at a density of 2×10^5 cells and treated with the TKI inhibitor TKI-0266. After 24 hours, the cells were fixed with 4% paraformaldehyde for 30 minutes at room temperature and washed three times with PBS for 10 minutes each wash. Next, the cells were treated with PBS containing 0.7% Triton for 10 minutes at room temperature and quenched with PBS containing 50 mM NH4Cl for 10 minutes at room temperature. The cells were washed three times with PBS for 5 minutes each wash, and then blocked with 5% BSA-containing PBS and incubated with anti-NIS primary antibody (diluted at 1:50; Abcam, UK) overnight at 4° C. The next day, the cells were washed three times with PBS for 10 minutes each wash and incubated with Alexa-Fluor 488-conjugated secondary antibody (diluted at 1:300; Thermo Fisher Scientific) 1 hour. After 1 hour, the cells were washed three times with PBS for 10 minutes for each wash, and mounted on a coverslip using a Vecta mounting medium (Vector Laboratories, USA) containing 4′,6-diamidino-2-phenylindole (DAPI). NIS staining was observed by confocal laser microscopy (Zeiss, LSM 5 exciter, Germany).

[5] = system: NIS; assay: Immunohistochemistry of NIS in tumor tissue; format: in vivo, Balb/c nude mice; settings: xenograft tumor sections
Source text: At the end of the experiment, the mice were sacrificed, and the tumors were isolated from the mouse's right flank and fixed overnight with 4% formalin. The isolated tumors were embedded in paraffin, sectioned to a 4-μm thickness, and mounted on slides. The tumor sections on the slides were de-paraffinized and stained with hematoxylin & eosin. For immunohistochemistry, NIS (Thermo Fisher Scientific; diluted at 1:200) and cleaved caspase-3 (Cell signaling; diluted at 1:200) antibodies were used.

Cc1cc2c(N(C)C3CCCCC3)ncnc2s1 [TKI-0266]
viability at 24 h [1]: ~75%
BLI signal activity of R-luc, vehicle group vs treated group [2]: did not significantly differ
level of phosphorylated-AKT (p-AKT) protein vs vehicle [3]: little difference
expression of endogenous NIS (immunofluorescence) [4]: robust
expression of NIS-specific protein in tumor tissue (immunohistochemistry) [5]: high
